Assay results from ChEMBL document CHEMBL3046811, “Syntheses and in vitro biological screening of 1-aryl-10H-[1,2,4]triazolo[3,4:3,4][1,2,4]triazino[5,6-b]indoles” (Med Chem Res, 2013).

Tests used:
[1] = test system: Respiratory syncytial virus; assay: Antiviral activity against Respiratory syncytial virus infected African green monkey Vero 76 cells assessed as reduction in plaque number treated after viral infection measured after 5 days by plaque reduction assay; type: functional, organism-based; details: human respiratory syncytial virus, 120 h
Poliovirus 1 = assay: Antiviral activity against Human poliovirus 1 strain Sabin infected African green monkey Vero 76 cells assessed as reduction in plaque number treated after viral infection measured after 2 days by plaque reduction assay; type: functional, organism-based; details: Enterovirus C, 48 h
[2] = test system: Vesicular stomatitis virus; assay: Antiviral activity against Vesicular stomatitis virus infected African green monkey Vero 76 cells assessed as reduction in plaque number treated after viral infection measured after 2 days by plaque reduction assay; type: functional, organism-based; details: 48 h
[3] = Cytotoxicity against Homo sapiens (human) MT4 cells assessed as inhibition of cell vaibility after 96 hr by MTT assay; type: cell-based
Human alphaherpesvirus 1 = assay: Antiviral activity against Human herpesvirus 1 infected African green monkey Vero 76 cells assessed as reduction in plaque number treated after viral infection measured after 3 days by plaque reduction assay; type: functional, organism-based; details: Human alphaherpesvirus 1, Vero, 72 h
[4] = Cytotoxicity against Chlorocebus aethiops (African green monkey) Vero 76 cells assessed as inhibition of cell viability after 48 to 120 hr by MTT assay; type: cell-based; details: chlorocebus sabaeus
[5] = Selectivity index, ratio of CC50 for bovine MDBK cells to EC50 for BVDV infected in bovine MDBK cells
[6] = Cytotoxicity against Mesocricetus auratus (Syrian golden hamster) BHK21cells assessed as inhibition of cell viability after 48 to 120 hr by MTT assay; type: cell-based; details: BHK-21 cells
[7] = test system: Bovine viral diarrhea virus 1; assay: Antiviral activity against Bovine viral diarrhea virus 1 infected bovine MDBK cells assessed as protection against virus-induced cytopathogenicity treated 1 hr after viral infection measured after 3-4 days by MTT method; type: functional, organism-based; details: Bovine viral diarrhea virus isolates and strains
Coxsackievirus B2 = assay: Antiviral activity against Human coxsackievirus B2 infected in African green monkey Vero 76 cells assessed as reduction in plaque number treated after viral infection measured after 3 days by plaque reduction assay; type: functional, organism-based; details: Enterovirus B, 72 h
Vaccinia virus = assay: Antiviral activity against Vaccinia virus infected African green monkey Vero 76 cells assessed as reduction in plaque number treated after viral infection measured after 3 days by plaque reduction assay; type: functional, organism-based; details: Orthopoxvirus vaccinia, 72 h
[8] = test system: Human immunodeficiency virus 1; assay: Antiviral activity against Human immunodeficiency virus 1 infected human MT4 cells assessed as protection against virus-induced cytopathogenicity treated before viral infection measured after 4 days by MTT assay; type: functional, organism-based; details: Human immunodeficiency virus 1, MT4, 96 h
[9] = test system: Mammalian orthoreovirus 1; assay: Antiviral activity against Mammalian orthoreovirus 1 infected Syrian hamster BHK-21 cells assessed as protection against virus-induced cytopathogenicity treated 1 hr after viral infection measured after 3-4 days by MTT method; type: functional, organism-based; details: Mammalian orthoreovirus 1, BHK-21
[10] = Cytotoxicity against Bos taurus (bovine) MDBK cells assessed as inhibition of cell viability after 48 to 120 hr by MTT assay; type: cell-based; details: cattle
Yellow fever virus = assay: Antiviral activity against Yellow fever virus infected Syrian hamster BHK-21 cells assessed as protection against virus-induced cytopathogenicity treated 1 hr after viral infection measured after 3-4 days by MTT method; type: functional, organism-based

Row | SMILES | EC50 [1] [µM] | EC50 (Poliovirus 1) [µM] | EC50 [2] [µM] | CC50 at 96 h [3] [µM] | EC50 (Human alphaherpesvirus 1) [µM] | CC50 [4] [µM] | Ratio CC50/EC50 [5] | CC50 [6] [µM] | EC50 [7] [µM] | EC50 (Coxsackievirus B2) [µM] | EC50 (Vaccinia virus) [µM] | EC50 [8] [µM] | EC50 [9] [µM] | CC50 [10] [µM] | EC50 (Yellow fever virus) [µM]
1 | Clc1cccc(-c2nnc3nnc4c5ccccc5[nH]c4n23)c1 | > 60 | > 60 | > 60 | 29 | > 60 | 60 | >1.45 | 55 | 69 | > 60 | > 60 | > 29 | > 55 | > 100 | > 55
2 | COc1cc(-c2nnc3nnc4c5ccccc5[nH]c4n23)ccc1O | > 80 | > 80 | > 80 | 58 | > 80 | 80 | >1.11 | 45 | 90 | > 80 | > 80 | > 58 | 25 | > 100 | > 45
3 | c1ccc2c(-c3nnc4nnc5c6ccccc6[nH]c5n34)c3ccccc3cc2c1 | > 100 |  |  | 56 | > 100 | ≥ 100 | >33.33 | > 100 | 3 | > 100 |  | > 56 | > 100 | > 100 | 
